Results from EPA's ToxValDB 9.5.

Test system: Rattus norvegicus
[1] = reproduction developmental, duration: 70 days, oral, gavage, M, Crl:CD(SD), generation: P0, P0: Whole Body: Terminal Body Weight, Absolute
[2] = reproduction developmental, duration: 84 days, oral, gavage, M, Crl:CD(SD), generation: P0, P0: Seminal Vesicle: Seminal Vesicle Weight, Absolute + P0: Seminal Vesicle: Seminal Vesicle Weight, Relative + P0: Whole Body: Clinical …
[3] = reproduction developmental, duration: 84 days, oral, gavage, M, Crl:CD(SD), generation: P0, P0: Whole Body: Body Weight Change + P0: Whole Body: Terminal Body Weight, Absolute
[4] = reproduction developmental, duration: 131 days, oral, gavage, F, Crl:CD(SD), generation: P0, P0: Uterus: Uterus Weight, Absolute + P0: Uterus: Uterus Weight, Relative + P0: Whole Body: Clinical Observations
[5] = reproduction developmental, duration: 131 days, oral, gavage, F, Crl:CD(SD), generation: P0, P0: Whole Body: Body Weight Change + P0: Whole Body: Body Weight, Absolute + P0: Whole Body: Mortality
[6] = reproduction developmental, duration: 131 days, oral, gavage, M/F, Crl:CD(SD), generation: F1, F1: Kidney: Kidney Abnormalities + F1: Whole Body: Clinical Observations + F1: Whole Body: Dams with Liveborn Pups + F1: Whole Body: …
[7] = reproduction developmental, duration: 131 days, oral, gavage, M/F, Crl:CD(SD), generation: F1, F1: Whole Body: Pup Weight Relative to Litter
[8] = reproduction developmental, oral, gavage, F, Sprague-Dawley, generation: P0, P0: Developmental: Uterus: Implantation + P0: Developmental: Whole Body: No. Male Pups per No. of Pups Sexed + P0: Endocrine: Pituitary: …
[9] = reproduction developmental, oral, gavage, F, Sprague-Dawley, generation: P0, P0: Developmental: Uterus: Implantation + P0: Developmental: Whole Body: No. Male Pups per No. of Pups Sexed + P0: General Toxicity: Whole …
[10] = reproduction developmental, oral, gavage, M/F, Crl:CD(SD), generation: P0, P0: Reproductive: Whole Body: Gestation Index
[11] = reproduction developmental, oral, gavage, M, Crl:CD(SD), generation: P0, P0: General Toxicity: Whole Body: Necropsy Appeared Normal + P0: Nervous: CNS: Latency to Mount
[12] = reproduction developmental, oral, gavage, M, Sprague-Dawley, generation: P0, P0: General Toxicity: Whole Body: Body Weight Change + P0: General Toxicity: Whole Body: Clinical Observations + P0: General Toxicity: Whole…
[13] = short-term, duration: 28 days, oral, gavage, F, Crl:CD(SD), Liver: Liver Weight, Relative + Liver: Liver, Enlarged + Teeth: Incisors, Discolored
[14] = short-term, duration: 28 days, oral, gavage, F, Crl:CD(SD), Whole Body: Dystocia
[15] = short-term, duration: 28 days, oral, gavage, M/F, Crl:CD(SD), Adrenal: Adrenal Cortex Histopathology + Blood: Chloride (CL), Blood + Blood: Globulin (G), Blood + Blood: Potassium (K), Blood + Blood: …
[16] = short-term, duration: 28 days, oral, gavage, M/F, Crl:CD(SD), Whole Body: Body Weight Change + Whole Body: Body Weight, Absolute
[17] = short-term, duration: 28 days, oral, gavage, M, Crl:CD(SD), Teeth: Incisors, Discolored + Teeth: Teeth, Mottled

NEL (reproduction developmental, duration: 84 days, oral, gavage, M, Crl:CD(SD), generation: P0, P0: Epididymis: Epididymis Histopathology + P0: Epididymis: Epididymis Weight, Absolute + P0: Epididymis: Epididymis Weight, Relative + P0: …): 250 mg/kg-day
LEL [2]: 125 mg/kg-day
NEL [2]: 25 mg/kg-day
NEL (reproduction developmental, duration: 131 days, oral, gavage, F, Crl:CD(SD), generation: P0, P0: Bladder: Urinary Bladder Histopathology + P0: Kidney: Kidney Histopathology + P0: Lung: Lung Histopathology + P0: Ovary: Ovary …): 250 mg/kg-day
LEL [4]: 125 mg/kg-day
NEL [4]: 25 mg/kg-day
LEL [6]: 250 mg/kg-day
NEL [6]: 125 mg/kg-day
LEL [7]: 125 mg/kg-day
NEL [7]: 25 mg/kg-day
NEL (short-term, duration: 4 weeks, inhalation, F, Crl:CD(SD), Adrenal: Adrenal Gland Weight, Absolute + Adrenal: Adrenal Gland Weight, Absolute, Recovery + Adrenal: Adrenal Gland Weight, Relative + …): 1490 mg/m3
LEL (short-term, duration: 4 weeks, inhalation, F, Crl:CD(SD), Blood: Hematocrit (HCT) + Blood: Hemoglobin (HGB) + Blood: Red Blood Cell (RBC) + Bone: Decalcification, Trabeculae (4 wk) + Bone: …): 1490 mg/m3
NEL (short-term, duration: 4 weeks, inhalation, M, Crl:CD(SD), Adrenal: Adrenal Gland Weight, Absolute + Adrenal: Adrenal Gland Weight, Absolute, Recovery + Adrenal: Adrenal Gland Weight, Relative + …): 1490 mg/m3
LEL (short-term, duration: 4 weeks, inhalation, M, Crl:CD(SD), Bone: Decalcification, Trabeculae (4 wk) + Bone: Decalcification, Trabeculae (8 wk) + Kidney: Total Protein (TP), Urine + Liver: Albumin (A…): 1490 mg/m3
NEL (short-term, duration: 4 weeks, inhalation, M, Crl:CD(SD), Kidney: Total Protein (TP), Urine + Liver: Albumin (A), Blood + Liver: Liver Weight, Absolute + Liver: Liver Weight, Relative + Liver: Liver…): 149 mg/m3
LEL [13]: 25 mg/kg-day
NEL [13]: 5 mg/kg-day
NEL (short-term, duration: 28 days, oral, gavage, F, Crl:CD(SD), Teeth: Teeth, Mottled): 125 mg/kg-day
LEL [14]: 225 mg/kg-day
NEL [14]: 75 mg/kg-day
LEL [15]: 225 mg/kg-day
NEL [15]: 75 mg/kg-day
NEL (short-term, duration: 28 days, oral, gavage, M, Crl:CD(SD), Liver: Liver Weight, Relative + Liver: Liver, Enlarged): 125 mg/kg-day
LEL [17]: 25 mg/kg-day
NEL [17]: 5 mg/kg-day
Compound: OCCC(F)(F)C(F)(F)C(F)(F)C(F)(F)C(F)(F)C(F)(F)F [2-(Perfluorohexyl)ethanol]
LEL [1]: 250 mg/kg-day
NEL [1]: 125 mg/kg-day
LEL [3]: 250 mg/kg-day
NEL [3]: 125 mg/kg-day
LEL [5]: 250 mg/kg-day
NEL [5]: 125 mg/kg-day
NEL (reproduction developmental, duration: 131 days, oral, gavage, M/F, Crl:CD(SD), generation: F1, F1: Whole Body: Dams with Stillborn Pups + F1: Whole Body: Live Pups Born + F1: Whole Body: Surviving Pups Per Litter): 250 mg/kg-day
LOAEL [8]: 125 mg/kg-day
NOAEL [8]: 25 mg/kg-day
LOAEL [9]: 125 mg/kg-day
NOAEL [9]: 25 mg/kg-day
NOAEL (reproduction developmental, oral, gavage, F, Sprague-Dawley, generation: P0, P0: Endocrine: Pituitary: Pituitary Gland Histopathology + P0: Endocrine: Pituitary: Pituitary Gland Weight, Absolute + P0: Endocrine: …): 250 mg/kg-day
LOAEL [10]: 125 mg/kg-day
NOAEL [10]: 25 mg/kg-day
LOAEL [11]: 225 mg/kg-day
NOAEL [11]: 75 mg/kg-day
NOAEL (reproduction developmental, oral, gavage, M, Crl:CD(SD), generation: P0, P0: Nervous: CNS: Latency to Mount): 225 mg/kg-day
LOAEL (reproduction developmental, oral, gavage, M, Sprague-Dawley, generation: P0, P0: Endocrine: Pituitary: Pituitary Gland Histopathology + P0: Endocrine: Pituitary: Pituitary Gland Weight, Absolute + P0: Endocrine: …): 125 mg/kg-day
LOAEL [12]: 125 mg/kg-day
NOAEL [12]: 25 mg/kg-day
NEL (short-term, duration: 4 weeks, inhalation, F, Crl:CD(SD), Blood: Hematocrit (HCT) + Blood: Hemoglobin (HGB) + Blood: Red Blood Cell (RBC) + Liver: Alanine Aminotransferase (ALT), Blood + Liver: …): 149 mg/m3
LEL [16]: 75 mg/kg-day
NEL [16]: 25 mg/kg-day
